Values quoted from earlier work as cited in US20130048853A1, “Adsorbent and Method for Producing Same” (HITACHI HIGH-TECHNOLOGIES CORPORATION, priority 2010, published 2013).
Several values for one entry are separate records, joined by “and”; a condition that tells them apart may be missing. Equal values may be shown once. Read-outs that look alike come from different tables or passages of the source.

[1] = source not stated, calculated or actual values may be applied

SMILES | logP (octanol-water distribution coefficient) | logP (octanol-water distribution coefficient) [1]
O=C1NC(=O)C(c2ccccc2)(c2ccccc2)N1 [phenyloin] | 2.5 | 
CO[C@H]1C[C@@H]2CC[C@@H](C)[C@@](O)(O2)C(=O)C(=O)N2CCCC[C@H]2C(=O)O[C@H]([C@H](C)C[C@@H]2CC[C@@H](OCCO)[C@H](OC)C2)CC(=O)[C@H](C)/C=C(\C)[C@@H](O)[C@@H](OC)C(=O)[C@H](C)C[C@H](C)/C=C/C=C/C=C/1C [everolimus] |  | 3.4 and 3.35
CO[C@H]1C[C@@H]2CC[C@@H](C)[C@@](O)(O2)C(=O)C(=O)N2CCCC[C@H]2C(=O)O[C@H]([C@H](C)C[C@@H]2CC[C@@H](O)[C@H](OC)C2)CC(=O)[C@H](C)/C=C(\C)[C@@H](O)[C@@H](OC)C(=O)[C@H](C)C[C@H](C)/C=C/C=C/C=C/1C [rapamycin] |  | 3.5
